Here are results for three molecules from patent US20050101482A1, “Novel adsorbent” (priority 2001, published 2005).

The conditions of data set [1]: orally ingested into human beings; cited from earlier work.
Data set [2] can be described thus: Concentration of Erythromycin in the blood of rabbits. The class given is in vivo. Conditions: rabbit, 1.5 hours after the oral ingestion of 40 mg per head, groups taking and not taking the adsorbent alike. Here is the method:
The symptom of diarrhea was manifested in 100% of the rabbits of the group not using the adsorbent and 0% of the rabbits of the group using the adsorbent. At this time, in the group of rabbits taking the adsorbent and the group of rabbits not taking the adsorbent alike, the concentration of Erythromycin in the blood measured 1.5 hours after the oral ingestion was invariably in the range of 0.12-0.13 μg/ml.

The conditions of data set [3]: in human beings; cited from earlier work.
The conditions of data set [4]: orally ingested to a rabbit; cited from earlier work.

SMILES strings stand for the structures.

`OCCOCCO` [Diethylene glycol]: in data set [1], the “toxicity LD50” value is recorded as 1000 mg/kg.
For `CC[C@H]1OC(=O)[C@H](C)[C@@H](O[C@H]2C[C@@](C)(OC)[C@@H](O)[C@H](C)O2)[C@H](C)[C@@H](O[C@@H]2O[C@H](C)C[C@H](N(C)C)[C@H]2O)[C@](C)(O)C[C@@H](C)C(=O)[C@H](C)[C@@H](O)[C@]1(C)O` [Erythromycin], in data set [2], the concentration at 1.5 h is 120 to 130 ng/mL.
In general, LD50 refers to the dose expected to kill half of the subjects tested. Take `C[C@H]1CC[C@@H]2[C@@H](C)[C@H]3[C@H](C[C@H]4[C@@H]5CC=C6C[C@@H](O[C@@H]7O[C@H](CO)[C@H](O)[C@H](O[C@@H]8O[C@H](CO)[C@@H](O)[C@H](O)[C@H]8O)[C@H]7O[C@H]7O[C@@H](C)[C@H](O)[C@@H](O)[C@H]7O)CC[C@]6(C)[C@H]5CC[C@]34C)N2C1` [Solanine]: the concentration causing poisoning in data set [3] is 0.2 to 0.4 g. In addition, the LD50 in data set [4] is listed as 0.45 g/kg.
